For orientation: Kd means the equilibrium constant for the complex coming apart. Higher therefore signals lower affinity.

The subject of data set [1] is RV-infected MDCK cells. In words: Treatment of RV-infected MDCK cells with cholesterol-altering drugs, NSP4 transport by immunofluorescence. Type of data set: cell-based. The note with it: RV-infected MDCK cells (MOI 2, 12 hpi), treated in triplicate at recommended effective dose; stained with anti-NSP4_150-175 and anti-rabbit-IgG-FITC; compared to untreated infected cells. The procedure:
MDCK cells were infected with RV at a multiplicity of infection (MOI) of 2 and incubated for 12 hpi. The cells were washed and treated in triplicate with the cholesterol altering drugs, fillipin [40], and nystatin [41] exactly as described. Chlorpromazine and nocodazole were utilized as negative and positive controls, respectively. Cells were fixed with methanol : acetone (1 : 1) at −20°C for 10 min, blocked with 5% dry milk for 20 min, incubated with anti-NSP4_150-175 and anti-rabbit-IgG-FITC, and examined under a UV microscope (Zeiss). The cell surface carefully was observed and the presence or absence of fluorescence carefully noted. Comparisons also were made to untreated cells. Primary and secondary antibody controls were negative. To ensure the lack of drug toxicity, a separate set of cells were treated and then stained with trypan blue.

The conditions of data set [2]: cited from earlier work.
Data set [3] deals with T1, NSP4_112-140 (Rotavirus A, UniProt P04512). Type of data set: binding.
For data set [4], the target named is T1, NSP4_112-140. The class given is physicochemical.
Data set [5] in a line: Circular dichroism, percent α-helix of single peptides. As to conditions: CD, from molar ellipticity at 222 nm, mean ± SD, n = 4; for Percent α-helix, 50% TFE: peptide 15–35 μM in 50% trifluoroethanol; for Percent α-helix, 1 mM SUV: peptide 15–35 μM with 1 mM SUV (55 : 35 : 10, POPC/cholesterol/DOPS); for Percent α-helix, Aqueous Buffer: peptide 15–35 μM, 10 mM potassium phosphate buffer pH 7.4. Type of data set: physicochemical. (In general: Circular dichroism is widely used to follow secondary structure.)

The target in data set [6] is T2, Cy3-N-Cav_(19-40) (caveolin-1 aa 19-40, Cy3-labelled) (not fully specified).
T2 construct: also called Cy3-Cav_(19-40); N-caveolin-1_(19-40)
T2 peptide: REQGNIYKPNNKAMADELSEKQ
In words: other fluorescence titration. The note with it: both partners purified.

Where “and” joins values, the source holds several entries; their conditions need not be identical. Identical values can stand only once.

For `CCCCC[C@@H](O)[C@H]1C(=O)O[C@H](C)[C@@H](O)/C=C/C=C/C=C/C=C/C=C(\C)[C@@H](O)C[C@H](O)C[C@H](O)C[C@H](O)C[C@H](O)C[C@H](O)C[C@@H]1O` [Fillipin], in data set [1], the “Results: NSP4 transport to the cell surface” value (“Results: NSP4 transport” for short) is reported as “Disrupted NSP4 transport”.

For the molecule `CC(C)CCC[C@@H](C)[C@H]1CC[C@H]2[C@@H]3CC=C4C[C@@H](O)CC[C@]4(C)[C@H]3CC[C@]12C` [cholesterol], the “critical micellar concentration (CMC)” value in data set [2] is 25 to 40 nM.

Take `COC(=O)Nc1nc2ccc(C(=O)c3cccs3)cc2[nH]1` [Nocodazole]: the “Results: NSP4 transport” value in data set [1] is on record as “Disrupted NSP4 transport”.

“SGGKYVDSEGHLYTVPIRE [N-Cav2-20, caveolin-1 N-terminal peptide aa 2–20]”: the “fold increase in affinity in presence of SUV over absence of membranes” value in data set [3] is around 3 fold. Moreover, in data set [4], the “% helical content, Observed, 1 mM SUV” value is 34.7 ± 6.0%; the “% helical content, Observed, 50% TFE” value is reported as 46.3 ± 7.2%; the “% helical content, Observed, Aqueous buffer” value was 21.7 ± 0.8%; the “% helical content, Theoretical, 1 mM SUV” value is on record as 37.7 ± 1.9%. Further, in data set [4], the “% helical content, Theoretical, 50% TFE” value was determined as 47.6 ± 1.8% and the “% helical content, Theoretical, Aqueous buffer” value stood at 23.6 ± 2.6%. For the same molecule, in data set [5], the “Percent α-helix, 50% TFE” value came out at 16.5 ± 0.9%; the “Percent α-helix, 1 mM SUV” value came out at 18.5 ± 1.9%; the “Percent α-helix, Aqueous Buffer” value stood at 18.9 ± 2.8%.

For `C[C@@H]1[C@H](O)[C@@H](C)/C=C/C=C/CC/C=C/C=C/C=C/C=C/C(O[C@H]2O[C@H](C)[C@@H](O)[C@H](N)[C@@H]2O)CC2O[C@](O)(CC(O)C(O)CCC(O)CC(O)CC(O)CC(=O)O[C@H]1C)CC(O)C2C(=O)O` (stereo partly shown) [Nystatin], the “Results: NSP4 transport” value in data set [1] is “Disrupted NSP4 transport”.

Consider “EAVGKIFSNVRINLQKEI [C-Cav161-178, caveolin-1 C-terminal peptide aa 161–178]”, for which, in data set [4], the “% helical content, Observed, 1 mM SUV” value is reported as 51.9 ± 2.4%; the “% helical content, Observed, 50% TFE” value turned out to be 44.2 ± 10.6 %; the “% helical content, Observed, Aqueous buffer” value worked out at 25.0 ± 1.7 %; the “% helical content, Theoretical, 1 mM SUV” value is listed as 49.5 ± 6.2%. Further, in data set [4], the “% helical content, Theoretical, 50% TFE” value was determined as 67.8 ± 3.2% and the “% helical content, Theoretical, Aqueous buffer” value amounted to 35.3 ± 1.6%. In data set [5], the “Percent α-helix, 50% TFE” value worked out at 57.4 ± 4.4%; the “Percent α-helix, 1 mM SUV” value is reported as 42.5 ± 10.6%; the “Percent α-helix, Aqueous Buffer” value worked out at 43.4 ± 3.8%.

“FEDVIAEPEGTHS [Cav68-80, caveolin-1 central region peptide aa 68–80, negative control]”: in data set [4], the “% helical content, Observed, 1 mM SUV” value is reported as 31.3 ± 0.2%; the “% helical content, Observed, 50% TFE” value was determined as 45.9 ± 2.8%; the “% helical content, Observed, Aqueous buffer” value is given as 24.2 ± 0.3%; the “% helical content, Theoretical, 1 mM SUV” value was 37.5 ± 1.9%. In data set [4], the “% helical content, Theoretical, 50% TFE” value is 49.8 ± 1.8% and the “% helical content, Theoretical, Aqueous buffer” value was determined as 23.9 ± 0.7%. For the same molecule, in data set [5], the “Percent α-helix, 50% TFE” value was 23.1% and 24.4 ± 0.8%; the “Percent α-helix, 1 mM SUV” value is reported as 21.4 ± 2.0%; the “Percent α-helix, Aqueous Buffer” value is recorded as 23.4 ± 0.9%.

For the molecule `CN(C)CCCN1c2ccccc2Sc2ccc(Cl)cc21` [Chlorpromazine], in data set [1], the “Results: NSP4 transport” value is “Normal NSP4 transport to the PM”.

Take MIDKLTTREIEQVELLKRIYDKLTVQTTG (also called NSP4 (aa 112-140)) [NSP4_(112-140) peptide (rotavirus nonstructural protein 4, aa 112-140)]: the Kd in data set [6] is 40 nM.
